From US10946024B2, “Method for treating cancer” (Epizyme, Inc., priority 2014, dated 2021)

How the values were obtained:
[1] = tested on: H3K27me3/total H3 in HS-SY-II cells; assay: H3K27 methylation alterations by ELISA of extracted histones; format: cell-based, human; settings: 96 hours
Procedure: (§1) HS-SY-II and SW982 cells were treated with either DMSO or Compound A starting at 40 nmol/L and decreasing in fourfold dilutions for 96 hours. Cells were washed by ice cold PBS, harvested by cell scraper, and lysed with 100 μl of nuclear extraction buffer (10 mM Tris-HCl, 10 mM MgCl2, 25 mM KCl, 1% Triton X-100, 8.6% Sucrose, plus 1× Halt Protease inhibitor cocktail (1861281, Thermo Scientific). Nuclei were collected by centrifugation at 600 g for 5 minutes at 4° C. and washed once with ice cold PBS. Supernatant was removed and histones extracted for one hour with 100 μL of 0.4 N cold sulfuric acid. Extracts were clarified by centrifugation at 10,000 g for 10 minutes at 4° C. and transferred to a fresh microcentrifuge tube containing 1 mL of ice cold acetone. Histones were precipitated at −20° C. for overnight, pelleted by centrifugation at 10,000 g for 10 minutes and resuspended in 100 μl of water. Histones were quantified using the BCA protein assay (23225, Pierce). […] Subsequently, the developed colors in the wells were measured using a plate spectrophotometer (SpectraMax 250, Molecular Devices) at 450 nm (reference wavelength 650 nm). The H3K27me3 levels were adjusted to total histone H3, and expressed as fold changes to DMSO control.
(§2) The range of IC50 values (two independent experiments), shown in FIG. 6B, were determined by GraphPad Prism (GraphPad Software).

[2] = tested on: H3K27me3/total H3 in SW982 cells; assay: as above; format: cell-based, human; settings: SW982, 96 hours
Procedure: as §1, §2

[3] = Plasma concentrations in HS-SY-II xenograft model (LC/MS/MS); format: in vivo, mice; settings: oral twice daily for 7 days; 5 minutes before and 3 hours after the last dose
Procedure: (§3) HS-SY-II cells were harvested during mid-log phase growth, and resuspended in Hank balanced salt solution with 50% Matrigel (BD Biosciences). Balb/C-nu mice (Charles River Laboratories Japan) received 1×10^7 cells (0.1 mL cell suspension) subcutaneously in the right flank. Mice carrying tumors of approximately 200 mm^3 (31 days after injection) were sorted into treatment groups with similar mean tumor volumes. Compound A or vehicle (0.5% MC+0.1% Tween-80 in water) was administered at the indicated doses on twice a day for 7 days by oral gavage. Each dose was delivered in a volume of 0.2 mL/20 g mouse (10 mL/kg), and adjusted for the last recorded weight of individual animals. Peripheral blood samples were collected at approximately 5 minutes before and 3 hours after the last dose from Compound A-treated mice. After obtaining plasma samples by centrifugation, the analysis for plasma concentrations of Compound A was conducted by the liquid chromatography-tandem mass spectrometry (LC/MS/MS) method. The UPLC system (Acquity, Waters) equipped with a mass spectrometer (Quattro premier, MICROMASS) was used for quantification of Compound A. The concentrations are plotted (n=5) in FIG. 7A. Each bar represents a mean of plasma concentration in each group.

[4] = tested on: H3K27me3 in HS-SY-II xenograft; assay: H3K27me3 in tumor of HS-SY-II xenograft, 7 days twice daily oral dosing (ELISA); format: in vivo, mice; settings: for H3K27me3 in tumor, Mean 2 (fold change to vehicle) / H3K27me3 in tumor, Mean Diff. vehicle vs. treated: 7 days; for H3K27me3 in tumor, Dunnett's test Significant?: alpha 0.05
Procedure: as §3
For FIG. 10D, tumors were snap-frozen in liquid nitrogen. Frozen tumor samples were cut into a 20 mg pieces and placed in 500 μL of ice cold nuclear extraction buffer (10 mM Tris-HCl, 10 mM MgCl2, 25 mM KCl, 1% Triton X-100, 8.6% Sucrose, plus 1× Halt Protease inhibitor cocktail (1861281, Thermo Scientific)) and homogenized with a handy micro homogenizer. Nuclei were collected by centrifugation at 600 g for 5 minutes at 4° C. and washed once with ice cold PBS. Supernatant was removed and histones extracted for one hour with […] 0.4 N cold sulfuric acid. Extracts were clarified by centrifugation at 10,000 g for 10 minutes at 4° C. and transferred to a fresh microcentrifuge tube containing 1 mL of ice cold acetone. Histones were precipitated at −20° C. for overnight, pelleted by centrifugation at 10,000 g for 10 minutes and resuspended in 100 μl of water. Histones were quantified using the BCA protein assay (23225, Pierce). The diluted histones were coated on Immulon 4HBX plates (3855, Thermo Scientific) overnight and ELISA was performed. Briefly, after blocking with PBS containing 0.05% Tween 20 and 2% bovine serum albumin (BSA), the plates were incubated with H3K27me3 antibody (#9733, Cell Signaling Technology) or total histone H3 antibody (AB1791, Abcam). The plates were further incubated with horseradish peroxidase conjugated anti-rabbit IgG (#7074, Cell Signaling Technology), followed by incubated with TMB substrate (TMBS-0100-01, BioFx Laboratories). Subsequently, the developed colors in the wells were measured using a plate spectrophotometer (SpectraMax 250, Molecular Devices) at 450 nm (reference wavelength 650 nm). The H3K27me3 levels were adjusted to total histone H3, and expressed as fold changes to vehicle control. The values are plotted (n=6) in FIG. 10D. Each bar represents a mean of the values in each group. […] Histones were extracted and quantified, and the levels of H3K27me3 were analyzed as described above. Trimethylation levels of H3K27 in the tumor are plotted (n=5) in FIG. 7B. Each bar represents a mean±SEM of the trimethylation level in each group.

[5] = tested on: HLA genes, Fas, KLRD1 expression in synovial sarcoma PDX tumors; settings: 400 mg/kg BID, PDX tumors harvested on day 35
Procedure: Tumor samples were collected at approximately 3 hours after the last dose from mice used in analysis for PK values and PD alterations. The tumor samples were stored using RNAlater (AM7020, Life technologies). Total RNA isolation and the reverse transcription were performed by RNeasy Mini Kit (74104, Qiagen) and High capacity cDNA Reverse Transcription kit (4368814, Life technologies) according to the manufacturer's instruction. The cDNA samples were used for real time-PCR as described above. The expression levels were adjusted to GAPDH and expressed as fold changes to vehicle control (FIG. 9). Additionally or alternatively, total RNAs were isolated from frozen tumor samples. The TruSeq™ RNA Sample Prep Kit (Illumina) was used to build cDNA library for paired-end sequencing on the Illumina HiSeq (details described in Illumina TruSeq RNA Sample Preparation Guide). […] Paired-end reads from ˜50M clusters per sample were generated using TruSeq SBS kit on the Illumina HiSeq.
Raw sequencing reads in FASTQ format was aligned to human genome hg19 as well as mouse genome mm10. Transcriptomic quantification was carried out with the RSEM v1.1.13 program, using USCS KnownGene transcriptome as reference. […]
The patient-derived xenograft (PDX) models CTG-0331 and CTG-0771 are low passage Champions TumorGraft™ models representing human synovial sarcoma. […] Tumor size was measured twice weekly. […]

With CCN(c1cc(-c2ccc(CN3CCOCC3)cc2)cc(C(=O)NCc2c(C)cc(C)[nH]c2=O)c1C)C1CCOCC1 [Compound A] the “ratio of H3K27me3/total H3 (ratio to control)” value [1] was “decreased ratios”, the “ratio of H3K27me3/total H3 (ratio to control)” value [2] was “decreased ratios” and the plasma concentrations [3] was “Dose dependent exposure”. The “H3K27me3 in tumor, Dunnett's test Summary” value ([4]; 125 mg/kg) was “* * *”, the “H3K27me3 in tumor, Mean 2 (fold change to vehicle)” value (“H3K27me3 … (fold change to vehicle)” for short) ([4]; 125 mg/kg oral twice daily) was 0.7 and the “H3K27me3 in tumor, Mean Diff. vehicle vs. treated” value ([4]; 125 mg/kg oral twice daily) was 0.3. For the same compound, the “H3K27me3 in tumor, Dunnett's test Significant?” value ([4]; 125 mg/kg) was “Yes”, the “H3K27me3 in tumor, Dunnett's test Summary” value ([4]; 250 mg/kg) was “* * *” and the “H3K27me3 … (fold change to vehicle)” value ([4]; 250 mg/kg oral twice daily) was 0.55. The “H3K27me3 in tumor, Mean Diff. vehicle vs. treated” value ([4]; 250 mg/kg oral twice daily) was 0.45, the “H3K27me3 in tumor, Dunnett's test Significant?” value ([4]; 250 mg/kg) was “Yes” and the “H3K27me3 in tumor, Dunnett's test Summary” value ([4]; 500 mg/kg) was “* * *”. For the same compound, the “H3K27me3 … (fold change to vehicle)” value ([4]; 500 mg/kg oral twice daily) was 0.304, the “H3K27me3 in tumor, Mean Diff. vehicle vs. treated” value ([4]; 500 mg/kg oral twice daily) was 0.696 and the “H3K27me3 in tumor, Dunnett's test Significant?” value ([4]; 500 mg/kg) was “Yes”. For the same compound, the “H3K27me3 levels in tumor tissues” value ([4]; oral twice daily for 7 days) was “dose dependent decrease” and the “expression of HLA genes, Fas, and KLRD1 relative to vehicle” value [5] was “increased”.
